{"source": "patent US20100167329A1", "about": "“DEVICE FOR DRUG SCREENING” (Respiratorius AB, priority 2006, published 2010)", "tested_on": "small human bronchi", "test": "Repeated LTD4 control contractions of tissue sample in the perfusion chamber (long time stability)", "details": "LTD4 10 nM, 30 min, alternating with LTD4 free solution 60 min; repeated cycles n=8; after 14 h of measurements; FIG. 2", "method": "One embodiment of the present invention is illustrated in FIG. 1, wherein the chamber 1 is made out of titanium and has a volume of typically 5 mL. The chamber is mounted on a mounting piece 2 of silver, which contains means for controlling the temperature of the chamber. An inlet 3 and outlet 4 allow a continuous flow of a physiological solution through the chamber ensuring a constant concentration of the substances in the chamber. Tissue sample is placed on hooks 8 and the hooks are placed in the chamber in a suitable position so that the tissue sample is completely immersed in the liquid flowing through the chamber. One of the hooks is attached to a force transducer 9 and the other is a fixed hook. Test substances are injected in the liquid prior to the liquid entering the chamber. As the tissue sample reacts to the substances present in the liquid the force transducer register the tension in the tissue sample due to contraction or relaxation. The force transducer is preferably AME801, which is commercially available from Infineon technologies.\nA description of embodiments of the device according to the invention is shown in the previous section. In FIG. 2 control contractions in small human bronchi exposed to repeated (n=8) cycles with LTD4 (10 nM, 30 min) and LTD4 free solution (60 min) for 14 hours, are shown. The error bars show a low variance and good repeatability. […]"}
{"smiles": "CCCCC/C=C\\C\\C=C/C=C/C=C/[C@@H](SC[C@H](N)C(=O)NCC(=O)O)[C@@H](O)CCCC(=O)O", "note": "[LTD4]", "values": [{"measurement": "original contraction of the bronchi remaining", "result": "~80", "unit": "%"}]}
